Reference: patent publication US10858352B2, “Pharmaceutical compounds” (Heptares Therapeutics Limited, priority 2018, dated 2020)
Like-named read-outs stand apart in the source and are kept apart here.

Legend:
Type in all cases: cell-based
[1] = target: T1, human muscarinic M2 receptor (Homo sapiens, UniProt P08172); assay: Alphascreen Surefire phospho-ERK1/2 functional assay, M2; settings: for Emax: CHO
T1 sequence (P08172 1-466): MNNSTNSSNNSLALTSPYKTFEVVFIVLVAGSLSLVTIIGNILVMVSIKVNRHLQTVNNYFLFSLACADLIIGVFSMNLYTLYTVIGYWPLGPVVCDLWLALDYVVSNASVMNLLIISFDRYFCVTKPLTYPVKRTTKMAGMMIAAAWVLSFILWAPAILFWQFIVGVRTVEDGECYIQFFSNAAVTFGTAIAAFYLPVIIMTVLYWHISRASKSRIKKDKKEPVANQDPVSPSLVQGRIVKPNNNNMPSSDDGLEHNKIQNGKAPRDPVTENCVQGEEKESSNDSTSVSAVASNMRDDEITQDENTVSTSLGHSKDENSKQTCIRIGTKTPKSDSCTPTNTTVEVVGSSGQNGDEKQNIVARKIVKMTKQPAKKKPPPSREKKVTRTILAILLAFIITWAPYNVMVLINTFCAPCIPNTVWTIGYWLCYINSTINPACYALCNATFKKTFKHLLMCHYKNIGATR
Procedure: (§1) ERK1/2 phosphorylation is a downstream consequence of both Gq/11 and Gi/o protein coupled receptor activation, making it highly suitable for the assessment of M1, M3 (Gq/11 coupled) and M2, M4 receptors (Gi/o coupled), rather than using different assay formats for different receptor subtypes. CHO cells stably expressing the human muscarinic M1, M2, M3 or M4 receptor were plated (25K/well) onto 96-well tissue culture plates in MEM-alpha+10% dialysed FBS. Once adhered, cells were serum-starved overnight. Agonist stimulation was performed by the addition of 5 μL agonist to the cells for 5 min (37° C.). Media was removed and 50 μL of lysis buffer added. After 15 min, a 4 μL sample was transferred to 384-well plate and 7 μL of detection mixture added. […]

[2] = target: T2, human muscarinic M3 receptor (Homo sapiens, UniProt P20309); assay: Alphascreen Surefire phospho-ERK1/2 functional assay, M3; settings: for Emax: CHO
T2 construct: expressed in transfected cells
T2 sequence (P20309 whole entry): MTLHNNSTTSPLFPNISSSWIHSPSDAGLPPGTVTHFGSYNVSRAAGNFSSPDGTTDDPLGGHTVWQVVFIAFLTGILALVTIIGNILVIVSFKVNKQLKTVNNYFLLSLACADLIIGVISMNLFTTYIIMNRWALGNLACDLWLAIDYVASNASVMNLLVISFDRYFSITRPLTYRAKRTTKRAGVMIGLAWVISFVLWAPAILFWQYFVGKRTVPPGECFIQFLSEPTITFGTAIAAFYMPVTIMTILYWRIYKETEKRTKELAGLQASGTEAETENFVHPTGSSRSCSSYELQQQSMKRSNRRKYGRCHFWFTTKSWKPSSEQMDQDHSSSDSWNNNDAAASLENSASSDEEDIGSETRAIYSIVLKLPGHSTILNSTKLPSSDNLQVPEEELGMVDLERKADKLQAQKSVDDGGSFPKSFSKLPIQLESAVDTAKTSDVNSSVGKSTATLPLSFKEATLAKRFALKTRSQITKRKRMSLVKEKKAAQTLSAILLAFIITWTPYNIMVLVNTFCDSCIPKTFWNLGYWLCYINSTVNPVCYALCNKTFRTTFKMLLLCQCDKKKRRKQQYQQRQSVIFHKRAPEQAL
Procedure: as §1

[3] = target: T3, human muscarinic M4 receptor (Homo sapiens, UniProt P08173); assay: Alphascreen Surefire phospho-ERK1/2 functional assay, M4; settings: for EC50 / % Emax cf. ACh (M4) / pEC50 M4: CHO cells stably expressing human M4; for EC50 / pEC50 M4: agonist 5 min, 37° C.; for EC50: read-out: pEC50 M4 (converted); for Emax: CHO, read-out: % Emax cf. ACh (M4), CHO cells stably expressing human M4; for Emax / % Emax cf. ACh (M4): Emax relative to ACh
T3 construct: expressed in transfected cells
T3 sequence (P08173 1-479): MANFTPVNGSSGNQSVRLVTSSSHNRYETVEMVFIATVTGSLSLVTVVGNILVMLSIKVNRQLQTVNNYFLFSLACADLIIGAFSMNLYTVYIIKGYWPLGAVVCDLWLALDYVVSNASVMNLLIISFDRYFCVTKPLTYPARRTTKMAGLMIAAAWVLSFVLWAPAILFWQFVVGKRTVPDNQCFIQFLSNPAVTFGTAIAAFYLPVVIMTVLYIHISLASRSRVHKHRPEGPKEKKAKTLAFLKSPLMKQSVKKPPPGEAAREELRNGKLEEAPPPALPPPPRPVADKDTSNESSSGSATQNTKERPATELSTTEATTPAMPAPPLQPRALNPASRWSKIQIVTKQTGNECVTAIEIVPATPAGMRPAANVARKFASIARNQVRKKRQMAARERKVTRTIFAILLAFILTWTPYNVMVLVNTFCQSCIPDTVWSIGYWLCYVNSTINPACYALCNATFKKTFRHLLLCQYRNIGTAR
Summary of the method: (§2)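 CHO cells stably expressing human M1, M2, M3 or M4 receptor, serum-starved overnight, then stimulated with agonist for 5 min at 37 °C. Cells lysed for 15 min and phospho-ERK1/2 detected in the lysate by AlphaScreen SureFire.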

[4] = target: T4, human muscarinic M1 receptor (Homo sapiens, UniProt P11229); assay: Alphascreen Surefire phospho-ERK1/2 functional assay, M1; settings: for EC50 / pEC50 M1: agonist 5 min, 37° C.; for Emax: CHO, read-out: % Emax cf. ACh (M1), CHO cells stably expressing human M1; for Emax / % Emax cf. ACh (M1): Emax relative to ACh
T4 sequence (P11229 1-460): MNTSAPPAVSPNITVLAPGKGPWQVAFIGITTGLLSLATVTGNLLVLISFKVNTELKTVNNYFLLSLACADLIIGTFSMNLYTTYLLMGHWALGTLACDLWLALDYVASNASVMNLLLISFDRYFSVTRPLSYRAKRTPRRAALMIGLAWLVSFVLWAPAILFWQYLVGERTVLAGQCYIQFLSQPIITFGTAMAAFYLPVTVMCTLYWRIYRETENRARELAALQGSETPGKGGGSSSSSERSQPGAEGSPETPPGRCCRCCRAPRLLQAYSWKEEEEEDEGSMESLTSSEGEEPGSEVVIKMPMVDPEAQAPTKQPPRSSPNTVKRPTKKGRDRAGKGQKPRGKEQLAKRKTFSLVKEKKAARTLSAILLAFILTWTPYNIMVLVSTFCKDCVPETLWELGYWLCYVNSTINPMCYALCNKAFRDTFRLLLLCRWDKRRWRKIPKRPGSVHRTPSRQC
Summary of the method: as §2

[5] = CHO cells stably expressing human M2, agonist 5 min, 37° C., read-out: pEC50 M2 (converted)
[6] = CHO cells stably expressing human M3, agonist 5 min, 37° C., read-out: pEC50 M3 (converted)
[7] = CHO cells stably expressing human M1, read-out: pEC50 M1 (converted)
[8] = read-out: % Emax cf. ACh (M2), CHO cells stably expressing human M2, Emax relative to ACh
[9] = read-out: % Emax cf. ACh (M3), CHO cells stably expressing human M3, Emax relative to ACh
[10] = CHO cells stably expressing human M2, Emax relative to ACh
[11] = CHO cells stably expressing human M2, agonist 5 min, 37° C.
[12] = CHO cells stably expressing human M3, Emax relative to ACh
[13] = CHO cells stably expressing human M3, agonist 5 min, 37° C.
[14] = CHO cells stably expressing human M1

Structure (SMILES) | EC50 [1, 5] | EC50 [2, 6] | EC50 [3] | Emax [3] | EC50 [4, 7] | Emax [4] | % Emax cf. ACh (M2) [1, 10] | pEC50 M2 [1, 11] | % Emax cf. ACh (M3) [2, 12] | pEC50 M3 [2, 13] | % Emax cf. ACh (M4) [3] | pEC50 M4 [3] | % Emax cf. ACh (M1) [4, 14] | pEC50 M1 [4, 14] | also measured
CCC1(NC(=O)C2CCN(C3CC4CCC(C3)N4c3nc(C)no3)CC2)CCC1 (single isomer, unassigned) [12-8 Isomer 2] | 2.45 µM | > 20 µM | 0.933 µM | 109% | 0.135 µM | 104% |  |  |  |  |  |  |  |  | Emax ([1]; read-out: % Emax cf. ACh (M2)): 33%; Emax ([2]; read-out: % Emax cf. ACh (M3)): 3%
Cc1noc(N2CCCC(N3CCC4(CC3)CNC(=O)C4)CC2)n1 (single isomer, unassigned) [10-2 Isomer 1] | > 20 µM | > 20 µM | > 20 µM | 10% | 0.0933 µM | 66% |  |  |  |  |  |  |  |  | Emax [1, 8]: 3%; Emax [2, 9]: 5%
CCN(C)C(=O)[C@H]1[C@@H]2CN(C3CC4CCC(C3)N4c3nc(C)no3)C[C@@H]21 (single isomer, unassigned; isomer 2) [12-24 Isomer 2] |  |  |  |  |  |  | (60) % | 5.33 | (25) % | <4.70 | (83) % | 6.02 | (102) % | 7.58 | 
Cc1noc(N2C3COCC2CC(N2C[C@@H]4[C@H](C2)[C@H]4C(=O)N(C)C(C)C)C3)n1 (single isomer, unassigned; isomer 2) [12-22 Isomer 2] |  |  |  |  |  |  | (81) % | 5.68 | (52) % | 4.90 | (108) % | 6.23 | (102) % | 8.06 | 
Cc1noc(N2CCCC(N3CCC4(CC3)C(=O)Nc3ccccc34)CC2)n1 (single isomer, unassigned) [10-6 Isomer 1] |  |  | 0.0776 µM | 77% |  | 76% |  |  |  |  |  |  |  |  | EC50 [1]: > 20 µM; Emax ([1]; read-out: % Emax cf. ACh (M2)): 60%; EC50 [2]: > 20 µM; Emax ([2]; read-out: % Emax cf. ACh (M3)): 4%; EC50 ([4]; pEC50 M1, CHO cells stably expressing human M1): 0.661 µM
Cc1noc(N2CC3CC(N4CCC5(CC4)CNC(=O)C5)CC2C3)n1 (single isomer, unassigned) [11-2 Isomer 2] | > 20 µM | > 20 µM | > 20 µM | 15% | 0.00955 µM | 67% |  |  |  |  |  |  |  |  | Emax [1, 8]: 8%; Emax [2, 9]: 5%
CCN(CC)C(=O)[C@H]1[C@@H]2CN(C3CC4CCC(C3)N4c3nc(C)no3)C[C@@H]21 (single isomer, unassigned; isomer 1) [12-25 Isomer 1] |  |  |  |  |  |  | (31) % | <4.70 | (50) % | <4.70 | (22) % | <4.70 | (102) % | 6.70 | 
